Measured values taken from patent US20210290575A1, “METHODS AND COMPOSITIONS FOR IDENTIFICATION AND MODULATION OF MICROBIOME BIOCHEMICAL PATHWAYS TO ALTER PHENOTYPE” (Cybele Microbiome, Inc., priority 2017, published 2021).

Test system: Rhipicephalus microplus
Test: Tick repellency of compounds produced on tick-resistant versus tick-susceptible cattle breeds
Settings: compound produced on host; ticks on cattle (Nelore vs Holstein)
Excerpt: The tick Rhipicephalus microplus specializes on cattle and other large bovids. However, success of its blood-feeding depends on the breed of the bovine host. In an indicine and a taurine breed of cattle that present contrasting phenotypes of infestation, Nelore and Holstein, respectively, resistant and susceptible to tick infestations as ascertained by the number of ticks and the reproductive success of female ticks completing their life-cycles on these two types of host.
At the same time, different levels of host immunity may affect the composition of tick saliva, contributing to these outcomes.

CC(=O)CCC=C(C)C [6-methyl-5-hepten-2-one] was tested, and the “repellency (result in words)” value was “repellent”.
